Reference: patent publication US4639541A, “Substituted phenylacetic acid iodopropargyl esters, biocidal agents containing same and process for manufacturing same” (priority 1984, dated 1987)

Tests used:
[1] = tested on: Alternaria tenuis; test: Spore germination test, Alternaria tenuis; format: cell-based; conditions: 48 hours, 20° C., vs untreated control
Protocol: (§1) 50 μl of a solution or suspension of an active ingredient according to the invention together with 50 μl of a spore suspension produced by washing spores of an agar culture with a nutrient solution that contained per liter 10 g of sugar, 1 g of glycol, 1 g of KH2 PO4 and 0.5 g of MgSO4 were introduced into the concave-ground portion of concave-ground microscope slides.
(§2) The microscope slides were stored at 20° C. for 48 hours in a Petri dish, the base of which was covered with a moistened filter paper.
(§3) Subsequently, the ratio of germinated and non-germinated spores was compared with an untreated control specimen.
(§4) The degree of activity was calculated as a percentage in accordance with the following formula: [formula]

[2] = tested on: Colletotrichum coffeanum; test: Spore germination test, Colletotrichum coffeanum; format: cell-based; conditions: 48 hours, 20° C., vs untreated control
Protocol: as §1, §2, §3, §4

[3] = tested on: Penicillium glaucum; test: Spore germination test, Penicillium glaucum; format: cell-based; conditions: 48 hours, 20° C., vs untreated control
Protocol: as §1, §2, §3, §4

[4] = tested on: Botrytis cinerea; test: Fungicidal activity against Botrytis cinerea in broad beans; format: in vivo; conditions: 500 ppm spray, broad beans "Midget", after 6 days, 20° C., 95% humidity, vs untreated
Protocol: Broad beans of the "Midget" variety were grown to a height of approximately 10 cm. The plants were sprayed until dripping wet with spray liquors containing 500 ppm of active ingredient.
When the spray coating had dried, the plants were inoculated with a spore suspension of Botrytis cinerea. The plants were placed in a climatic cabinet at a constant 20° C. and an atmospheric humidity of 95%.
After 6 days, fungicidal activity was evaluated. The activity was ascertained in comparison with untreated specimens.
The degree of activity as a percentage was ascertained in accordance with the following formula [formula] The following were used as active ingredients: I 2-chloro-3,5-dinitrophenylacetic acid iodopropargyl ester

[5] = tested on: Fusarium nivale; test: Spore germination test, Fusarium nivale; format: cell-based; conditions: 48 hours, 20° C., vs untreated control
Protocol: as §1, §2, §3, §4

[6] = tested on: Fusarium culmorum; test: Spore germination test, Fusarium culmorum; format: cell-based; conditions: 48 hours, 20° C., vs untreated control
Protocol: as §1, §2, §3, §4

[7] = tested on: Verticillium dahliae; test: Spore germination test, Verticillium dahliae; format: cell-based; conditions: 48 hours, 20° C., vs untreated control
Protocol: as §1, §2, §3, §4

[8] = tested on: Botrytis cinerea; test: Spore germination test, Botrytis cinerea; format: cell-based; conditions: 48 hours, 20° C., vs untreated control
Protocol: as §1, §2, §3, §4

SMILES: O=C(Cc1ccccc1)OCC#CI [V]
- inhibition of growth at 1 ppm ([1]; Alternaria alternata, 1 ppm, read-out: degree of activity (fungal toxicity with respect to fungal spores)): 80%
- inhibition of growth at 2 ppm ([1]; Alternaria alternata, 2 ppm, read-out: degree of activity (fungal toxicity with respect to fungal spores)): 90%
- inhibition of growth at 4 ppm ([1]; Alternaria alternata, 4 ppm, read-out: degree of activity (fungal toxicity with respect to fungal spores)): 100%
- inhibition of growth at 1 ppm ([2]; Colletotrichum coffeanum, 1 ppm, read-out: degree of activity (fungal toxicity with respect to fungal spores)): 20%
- inhibition of growth at 2 ppm ([2]; Colletotrichum coffeanum, 2 ppm, read-out: degree of activity (fungal toxicity with respect to fungal spores)): 30%
- inhibition of growth at 4 ppm ([2]; Colletotrichum coffeanum, 4 ppm, read-out: degree of activity (fungal toxicity with respect to fungal spores)): 80%
- inhibition of growth at 1 ppm ([3]; Penicillium, 1 ppm, read-out: degree of activity (fungal toxicity with respect to fungal spores)): 0%
- inhibition of growth at 2 ppm ([3]; Penicillium, 2 ppm, read-out: degree of activity (fungal toxicity with respect to fungal spores)): 0%
- inhibition of growth at 4 ppm ([3]; Penicillium, 4 ppm, read-out: degree of activity (fungal toxicity with respect to fungal spores)): 40%
- % Activity against Botrytis cinerea in broad beans [4]: 0%
- inhibition of growth at 1 ppm ([5]; Microdochium nivale, 1 ppm, read-out: degree of activity (fungal toxicity with respect to fungal spores)): 60%
- inhibition of growth at 2 ppm ([5]; Microdochium nivale, 2 ppm, read-out: degree of activity (fungal toxicity with respect to fungal spores)): 70%
- inhibition of growth at 4 ppm ([5]; Microdochium nivale, 4 ppm, read-out: degree of activity (fungal toxicity with respect to fungal spores)): 90%
- inhibition of growth at 1 ppm ([6]; Fusarium culmorum, 1 ppm, read-out: degree of activity (fungal toxicity with respect to fungal spores)): 0%
- inhibition of growth at 2 ppm ([6]; Fusarium culmorum, 2 ppm, read-out: degree of activity (fungal toxicity with respect to fungal spores)): 0%
- inhibition of growth at 4 ppm ([6]; Fusarium culmorum, 4 ppm, read-out: degree of activity (fungal toxicity with respect to fungal spores)): 40%
- inhibition of growth at 1 ppm ([7]; Verticillium dahliae, 1 ppm, read-out: degree of activity (fungal toxicity with respect to fungal spores)): 0%
- inhibition of growth at 2 ppm ([7]; Verticillium dahliae, 2 ppm, read-out: degree of activity (fungal toxicity with respect to fungal spores)): 0%
- inhibition of growth at 4 ppm ([7]; Verticillium dahliae, 4 ppm, read-out: degree of activity (fungal toxicity with respect to fungal spores)): 30%
- inhibition of growth at 1 ppm ([8]; Botrytis cinerea, 1 ppm, read-out: degree of activity (fungal toxicity with respect to fungal spores)): 0%
- inhibition of growth at 2 ppm ([8]; Botrytis cinerea, 2 ppm, read-out: degree of activity (fungal toxicity with respect to fungal spores)): 0%
- inhibition of growth at 4 ppm ([8]; Botrytis cinerea, 4 ppm, read-out: degree of activity (fungal toxicity with respect to fungal spores)): 50%

SMILES: O=C(Cc1cc([N+](=O)[O-])c(Cl)c([N+](=O)[O-])c1)OCC#CI [H]
- degree of activity (fungal toxicity with respect to fungal spores) ([1]; 2 ppm): 100%
- degree of activity (fungal toxicity with respect to fungal spores) ([2]; 2 ppm): 100%
- degree of activity (fungal toxicity with respect to fungal spores) ([3]; 2 ppm): 100%
- % Activity against Botrytis cinerea in broad beans [4]: 30%
- degree of activity (fungal toxicity with respect to fungal spores) ([5]; 2 ppm): 90%
- degree of activity (fungal toxicity with respect to fungal spores) ([6]; 2 ppm): 90%
- degree of activity (fungal toxicity with respect to fungal spores) ([7]; 2 ppm): 40%
- degree of activity (fungal toxicity with respect to fungal spores) ([8]; 2 ppm): 70%

SMILES: O=C(OCC#CI)C(Br)c1ccc(Cl)cc1 (stereo not drawn) [B]
- degree of activity (fungal toxicity with respect to fungal spores) ([1]; 1 ppm): 100%
- degree of activity (fungal toxicity with respect to fungal spores) ([1]; 2 ppm): 100%
- degree of activity (fungal toxicity with respect to fungal spores) ([1]; 4 ppm): 100%
- degree of activity (fungal toxicity with respect to fungal spores) ([2]; 1 ppm): 100%
- degree of activity (fungal toxicity with respect to fungal spores) ([2]; 2 ppm): 100%
- degree of activity (fungal toxicity with respect to fungal spores) ([2]; 4 ppm): 100%
- degree of activity (fungal toxicity with respect to fungal spores) ([3]; 1 ppm): 100%
- degree of activity (fungal toxicity with respect to fungal spores) ([3]; 2 ppm): 100%
- degree of activity (fungal toxicity with respect to fungal spores) ([3]; 4 ppm): 100%
- degree of activity (fungal toxicity with respect to fungal spores) ([5]; 1 ppm): 100%
- degree of activity (fungal toxicity with respect to fungal spores) ([5]; 2 ppm): 100%
- degree of activity (fungal toxicity with respect to fungal spores) ([5]; 4 ppm): 100%
- degree of activity (fungal toxicity with respect to fungal spores) ([6]; 1 ppm): 100%
- degree of activity (fungal toxicity with respect to fungal spores) ([6]; 2 ppm): 100%
- degree of activity (fungal toxicity with respect to fungal spores) ([6]; 4 ppm): 100%
- degree of activity (fungal toxicity with respect to fungal spores) ([7]; 1 ppm): 100%
- degree of activity (fungal toxicity with respect to fungal spores) ([7]; 2 ppm): 100%
- degree of activity (fungal toxicity with respect to fungal spores) ([7]; 4 ppm): 100%
- degree of activity (fungal toxicity with respect to fungal spores) ([8]; 1 ppm): 100%
- degree of activity (fungal toxicity with respect to fungal spores) ([8]; 2 ppm): 100%
- degree of activity (fungal toxicity with respect to fungal spores) ([8]; 4 ppm): 100%

SMILES: O=C(Cc1ccc(Cl)cc1)OCC#CI [A]
- degree of activity (fungal toxicity with respect to fungal spores) ([1]; 1 ppm): 80%
- degree of activity (fungal toxicity with respect to fungal spores) ([1]; 2 ppm): 80%
- degree of activity (fungal toxicity with respect to fungal spores) ([1]; 4 ppm): 90%
- degree of activity (fungal toxicity with respect to fungal spores) ([2]; 1 ppm): 80%
- degree of activity (fungal toxicity with respect to fungal spores) ([2]; 2 ppm): 90%
- degree of activity (fungal toxicity with respect to fungal spores) ([2]; 4 ppm): 95%
- degree of activity (fungal toxicity with respect to fungal spores) ([3]; 1 ppm): 90%
- degree of activity (fungal toxicity with respect to fungal spores) ([3]; 2 ppm): 95%
- degree of activity (fungal toxicity with respect to fungal spores) ([3]; 4 ppm): 95%
- degree of activity (fungal toxicity with respect to fungal spores) ([5]; 1 ppm): 60%
- degree of activity (fungal toxicity with respect to fungal spores) ([5]; 2 ppm): 80%
- degree of activity (fungal toxicity with respect to fungal spores) ([5]; 4 ppm): 90%
- degree of activity (fungal toxicity with respect to fungal spores) ([6]; 1 ppm): 90%
- degree of activity (fungal toxicity with respect to fungal spores) ([6]; 2 ppm): 95%
- degree of activity (fungal toxicity with respect to fungal spores) ([6]; 4 ppm): 95%
- degree of activity (fungal toxicity with respect to fungal spores) ([7]; 1 ppm): 80%
- degree of activity (fungal toxicity with respect to fungal spores) ([7]; 2 ppm): 80%
- degree of activity (fungal toxicity with respect to fungal spores) ([7]; 4 ppm): 95%
- degree of activity (fungal toxicity with respect to fungal spores) ([8]; 1 ppm): 80%
- degree of activity (fungal toxicity with respect to fungal spores) ([8]; 2 ppm): 80%
- degree of activity (fungal toxicity with respect to fungal spores) ([8]; 4 ppm): 90%

SMILES: O=C(Cc1cc([N+](=O)[O-])cc([N+](=O)[O-])c1Cl)OCC#CI [I]
- % Activity against Botrytis cinerea in broad beans [4]: 80%

SMILES: O=C(Cc1c(Cl)c([N+](=O)[O-])cc([N+](=O)[O-])c1Cl)OCC#CI [K]
- % Activity against Botrytis cinerea in broad beans [4]: 30%

SMILES: O=C(Cc1cc([N+](=O)[O-])c(Cl)cc1Cl)OCC#CI [E]
- degree of activity (fungal toxicity with respect to fungal spores) ([1]; 1 ppm): 100%
- degree of activity (fungal toxicity with respect to fungal spores) ([1]; 2 ppm): 100%
- degree of activity (fungal toxicity with respect to fungal spores) ([1]; 4 ppm): 100%
- degree of activity (fungal toxicity with respect to fungal spores) ([2]; 1 ppm): 100%
- degree of activity (fungal toxicity with respect to fungal spores) ([2]; 2 ppm): 100%
- degree of activity (fungal toxicity with respect to fungal spores) ([2]; 4 ppm): 100%
- degree of activity (fungal toxicity with respect to fungal spores) ([3]; 1 ppm): 100%
- degree of activity (fungal toxicity with respect to fungal spores) ([3]; 2 ppm): 100%
- degree of activity (fungal toxicity with respect to fungal spores) ([3]; 4 ppm): 100%
- degree of activity (fungal toxicity with respect to fungal spores) ([5]; 1 ppm): 100%
- degree of activity (fungal toxicity with respect to fungal spores) ([5]; 2 ppm): 100%
- degree of activity (fungal toxicity with respect to fungal spores) ([5]; 4 ppm): 100%
- degree of activity (fungal toxicity with respect to fungal spores) ([6]; 1 ppm): 100%
- degree of activity (fungal toxicity with respect to fungal spores) ([6]; 2 ppm): 100%
- degree of activity (fungal toxicity with respect to fungal spores) ([6]; 4 ppm): 100%
- degree of activity (fungal toxicity with respect to fungal spores) ([7]; 1 ppm): 30%
- degree of activity (fungal toxicity with respect to fungal spores) ([7]; 2 ppm): 30%
- degree of activity (fungal toxicity with respect to fungal spores) ([7]; 4 ppm): 40%
- degree of activity (fungal toxicity with respect to fungal spores) ([8]; 1 ppm): 30%
- degree of activity (fungal toxicity with respect to fungal spores) ([8]; 2 ppm): 30%
- degree of activity (fungal toxicity with respect to fungal spores) ([8]; 4 ppm): 40%

SMILES: Cc1cc(C)c(CC(=O)OCC#CI)c(C)c1 [L]
- % Activity against Botrytis cinerea in broad beans [4]: 20%
